# From patent US11459308B2 (priority 2016, dated 2022)
# Assays:
# in vitro = details: African green monkey
# rVSV-SUDV GP = assay type: cell-based, Sudan Ebolavirus
# rVSV-BDBV GP = assay type: cell-based, Bundybugyo Ebolavirus
# [1] = tested on: authentic EBOV (EBOV-Zaire 1995); assay: microbe, parasite or virus in culture; assay type: cell-based, Ebola virus; details: Zaire ebolavirus, Vero, 48 h, read-out: infectious EBOV-Z IC50
# rVSV-EBOV GP = assay: microbe, parasite or virus in culture; assay type: cell-based, Zaire Ebolavirus; details: for IC50: Zaire ebolavirus, read-out: rVSV-EBOV IC50
# [2] = tested on: EBOV-GPCL/NPC1-C interaction; assay type: binding, human
Compound,CC50 (in vitro) [µM],inhibition of infection of Vero cells by rVSV-SUDV GP (rVSV-SUDV GP),inhibition of infection of Vero cells by rVSV-BDBV GP (rVSV-BDBV GP),IC50 [1] [µM],inhibition of infection of Vero cells by rVSV-EBOV GP (rVSV-EBOV GP),IC50 (rVSV-EBOV GP) [µM],inhibition of GPCL-NPC1-C AlphaLISA compared with biotin-streptavidin AlphaLISA [2],selectivity for inhibition of the EBOV-GPCL/NPC1-C interaction vs. the biotin-streptavidin interaction [2]
"O=[N+]([O-])c1ccc(N2CCN(Cc3ccoc3)CC2)cc1NC(c1ccccc1)c1ccccc1 [MBX 3574, 1-(benzhydrylamino)-5-[4-(furan-3-ylmethyl)piperazin-1-yl]-2-nitrobenzene]",> 200,potent inhibitors,potent inhibitors,1.2,potent inhibitors,0.56,–,–
"CN1CCN(c2ccc([N+](=O)[O-])c(NC(C)(C)c3ccccc3)c2)CC1 [MBX 3741, 2-(2-phenylpropan-2-ylamino)-4-(4-methylpiperazin-1-yl)-1-nitrobenzene]",85,–,–,10.3,–,3.1,–,–
"CN(C)CCNc1ccc([N+](=O)[O-])c(NC(c2ccccc2)c2ccccc2)c1 [MBX 4334, N^3-benzhydryl-N^1-(2-(dimethylamino)ethyl)-4-nitrobenzene-1,3-diamine]",16,–,–,0.82,–,1.04,–,–
"O=[N+]([O-])c1ccc(N2CCNCC2)cc1NC(c1ccccc1)c1ccccc1 [MBX 3556, 1-(benzhydrylamino)-5-(piperazin-1-yl)-2-nitrobenzene]",5.2,–,–,1.1,–,1.4,–,–
CN(C)CCCNc1ccc([N+](=O)[O-])c(NC(c2ccccc2)c2ccccc2)c1 [MBX 4335],11,–,–,0.48,–,0.79,–,–
"CC(=O)Nc1ccc(N2CCN(C)CC2)cc1NC(c1ccccc1)c1ccccc1 [MBX 3525, 2-(benzhydrylamino)-4-(4-methylpiperazin-1-yl)-1-acetamidobenzene]",100,–,–,> 20,–,4,–,–
"O=[N+]([O-])c1ccc(N2CCN(Cc3ccco3)CC2)cc1NC(c1ccccc1)c1ccccc1 [MBX 3575, 1-(benzhydrylamino)-5-[4-(furan-2-ylmethyl)piperazin-1-yl]-2-nitrobenzene]",> 200,–,–,> 20,–,1.7,–,–
"CC(C)N(CCNc1ccc([N+](=O)[O-])c(NC(c2ccccc2)c2ccccc2)c1)C(C)C [MBX 4336, N^3-benzhydryl-N^1-(2-(diisopropylamino)ethyl)-4-nitrobenzene-1,3-diamine]",12,–,–,0.56,–,0.39,–,–
"CC(C)N1CCN(c2ccc([N+](=O)[O-])c(NC(c3ccccc3)c3ccccc3)c2)CC1 [MBX 3561, 1-(benzhydrylamino)-5-(4-isopropylpiperazin-1-yl)-2-nitrobenzene]",63,–,–,1.7,–,1.5,–,–
"c1ccc(C(c2ccccc2)n2cnc3ccc(N4CCN5CCCC5C4)cc32)cc1 (centres unmarked) [MBX 4210, 1-benzhydryl-6-(hexahydropyrrolo[1,2-a]pyrazin-2(1H)-yl)-1H-benzo[d]imidazole]",> 200,–,–,1.8,–,1.6,–,–
"CN1CCN(c2ccc([N+](=O)[O-])c(NC(c3ccccc3)c3ccccc3)c2)CC1 [PPZ-1, N-benzhydryl-5-(4-methylpiperazin-1-yl)-2-nitroaniline]",61,–,–,2.3,–,1.2,–,–
"CN1CCN(c2ccc3nnn(C(c4ccccc4)c4ccccc4)c3c2)CC1 [MBX 3537A, 1-benzhydryl-6-(4-methylpiperazin-1-yl)-benzo[d][1,2,3]triazole]",41,–,–,2.3,–,2.3,–,–
"CC(C)(C)N1CCN(c2ccc([N+](=O)[O-])c(NC(c3ccccc3)c3ccccc3)c2)CC1 [MBX 3625, 2-benzhydrylamino-4-(4-tert-butylpiperazin-1-yl)nitrobenzene]",> 100,–,–,0.78,–,0.85,–,–
"O=[N+]([O-])c1ccc(N2CCN(Cc3ccsc3)CC2)cc1NC(c1ccccc1)c1ccccc1 [MBX 3577, 1-(benzhydrylamino)-5-[4-(thiophen-3-ylmethyl)piperazin-1-yl]-2-nitrobenzene]",> 200,–,–,> 20,–,6.5,–,–
"O=[N+]([O-])c1ccc(N2CCN(C3CCC3)CC2)cc1NC(c1ccccc1)c1ccccc1 [MBX 3589, 1-(benzhydrylamino)-5-[4-(cyclobutyl)piperazin-1-yl]-2-nitrobenzene]",> 200,–,–,8,–,0.83,–,–
"CN1CCN(c2ccnc(NC(c3ccccc3)c3ccccc3)c2)CC1 [MBX 3586, 2-(benzhydrylamino)-4-(4-methylpiperazin-1-yl)pyridine]",70,–,–,2.6,–,7,–,–
"O=[N+]([O-])c1ccc(N2CCN(CCO)CC2)cc1NC(c1ccccc1)c1ccccc1 [MBX 3588, 1-(benzhydrylamino)-5-[4-(2-hydroxyethyl)piperazin-1-yl]-2-nitrobenzene]",21,–,–,0.73,–,1.4,much more potently,about 10 fold
"O=[N+]([O-])c1ccc(N2CCN(Cc3cccnc3)CC2)cc1NC(c1ccccc1)c1ccccc1 [MBX 3568, 1-(benzhydrylamino)-5-[4-(pyridin-3-ylmethyl)piperazin-1-yl]-2-nitrobenzene]",> 200,–,–,4.5,–,4.5,–,–
"CN(C)CCNc1ccc2ncn(C(c3ccccc3)c3ccccc3)c2c1 [MBX 4251, N^1-(1-benzhydryl-1H-benzo[d]imidazol-6-yl)-N^2,N^2-dimethylethane-1,2-diamine]",105,–,–,2.66,–,2.01,–,–
"CCN1CCN(c2ccc([N+](=O)[O-])c(NC(c3ccccc3)c3ccccc3)c2)CC1 [MBX 3557, 1-(benzhydrylamino)-5-(4-ethylpiperazin-1-yl)-2-nitrobenzene]",20,–,–,1.9,–,1.4,–,–
"Cc1nc2ccc(N3CCN(C)CC3)cc2n1C(c1ccccc1)c1ccccc1 [MBX 3539, 1-benzhydryl-2-methyl-6-(4-methylpiperazin-1-yl)benzo[d]imidazole]",77,–,–,> 20,–,14,–,–
